Values of other authors in patent US20250345315A1, “Dispenseable formulation for active pharmaceutical ingredients” (CurifyLabs Oy, priority 2024, published 2025).
Where a name gives a salt, the structure may show the parent alone.

settings: permeability/solubility class per ICH M9 guideline

Row | Class | Structure (SMILES)
1 | I | CC(C)NCC(O)COc1ccc(COCCOC(C)C)cc1 (centres unmarked) [Bisoprolol fumarate]
2 | I | CC(=O)Nc1ccc(O)cc1 [Paracetamol]

The remaining lines, values behind:

Row | Structure (SMILES) | Class
3 | CC(=O)Oc1ccccc1C(=O)O [Acetylsalicylic acid] | I
4 | C[C@]12C=CC(=O)C=C1CC[C@@H]1[C@@H]2[C@@H](O)C[C@@]2(C)[C@H]1CC[C@]2(O)C(=O)CO [Prednisolone] | I
5 | CC(C)NCC(O)COc1cccc2ccccc12 (centres unmarked) [Propranolol HCl] | I
